Patent US8927500B2, “Peptidomimetic macrocycles” (Aileron Therapeutics, Inc., priority 2012, dated 2015)
Where two headings read alike, the source gives them in different places. Where a SMILES comes first, the peptide text is derived from it. Bridges are numbered along the chain shown (N, C = ends). [ ]: non-standard residue; d: D form. R8 = C=CCCCCCC[C@@](C)(N)C(=O)O; S5 = C=CCCC[C@](C)(N)C(=O)O

Tests used:
[1] = system: Caspase 3; test: Caspase 3 detection assay in SJSA1 cells; assay type: cell-based; settings: 48 h, Caspase 3 activation over DMSO-treated cells; for caspase 0.3 uM: 0.3 uM peptide; for caspase 3 uM: 3 uM peptide; for caspase 10 uM: 10 uM peptide; for caspase 30 uM: 30 uM peptide
[2] = target: MDM2 (Homo sapiens, UniProt Q00987); test: Competitive fluorescence polarization assay for MDM2; assay type: binding; settings: competitive FP assay, MDM2
Experimental: Dilute 1 mM (in 100% DMSO) of FAM labeled linear peptide with DMSO to 100 μM (dilution 1:10). Then, dilute from 100 μM to 10 μM with water (dilution 1:10) and then dilute with FP buffer from 10 μM to 40 nM (dilution 1:250). This is the working solution which will be a 10 nM concentration in well (dilution 1:4). […] Then, dilute from 5 mM to 500 μM with H2O (dilution 1:10) and then dilute with FP buffer from 500 μM to 20 μM (dilution 1:25).
Dilute 1 mM (in 100% DMSO) of FAM labeled linear peptide with DMSO to 100 μM (dilution 1:10). Then, dilute from 100 μM to 10 μM with water (dilution 1:10) and then dilute with FP buffer from 10 μM to 40 nM (dilution 1:250). This is the working solution which will be a 10 nM concentration in well (dilution 1:4). […] Dilute 10 mM (in 100% DMSO) with DMSO to 5 mM (dilution 1:2). Then, dilute from 5 mM to 500 μM with H2O (dilution 1:10) and then dilute with FP buffer from 500 μM to 20 μM (dilution 1:25). […] Transfer 10 μl of serial diluted unlabeled peptides to each well which is filled with 20 μl of 300 nM of protein. • 7. Add 10 μl of 10 nM (4×) of FAM labeled peptide into each well and incubate for 3 hr to read.

[3] = target: T1, MDMX (Homo sapiens, UniProt O15151); test: Competitive fluorescence polarization assay for MDMX; assay type: binding; settings: competitive FP assay
T1 sequence (O15151 1-125): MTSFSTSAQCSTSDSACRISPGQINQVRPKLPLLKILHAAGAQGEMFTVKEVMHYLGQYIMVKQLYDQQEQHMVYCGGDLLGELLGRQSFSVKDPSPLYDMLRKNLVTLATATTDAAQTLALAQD

[4] = system: SJSA-1 cells; test: Cell lysis by peptidomimetic macrocycles (LDH release); assay type: cell-based; settings: 1 h at 37C

Sequence of MDM2 (Q00987 1-125): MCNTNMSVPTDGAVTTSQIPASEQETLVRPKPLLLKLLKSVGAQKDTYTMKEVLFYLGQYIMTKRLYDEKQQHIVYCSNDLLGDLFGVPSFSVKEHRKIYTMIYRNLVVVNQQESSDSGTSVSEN

| SMILES | caspase 0.3 uM [1] | caspase 3 uM [1] | caspase 10 uM [1] | caspase 30 uM [1] | IC50 ([2]; read-out: IC50 (MDM2)) [µM] | Ki ([2]; read-out: Ki (MDM2)) [µM] | IC50 ([3]; read-out: IC50 (MDMX)) [µM] | Ki ([3]; read-out: Ki (MDMX)) [µM] | 6.25 uM % Lysed cells (1 h LDH) [4] [%] | 25 uM % Lysed cells (1 h LDH) [4] [%] | 50 uM % Lysed cells (1 h LDH) [4] [%] | IC50 ([2]; IC50 (MDM2)) [µM] | Ki ([2]; Ki (MDM2)) [µM] | IC50 ([3]; IC50 (MDMX)) [µM] | Ki ([3]; Ki (MDMX)) [µM] |
| --- | --- | --- | --- | --- | --- | --- | --- | --- | --- | --- | --- | --- | --- | --- | --- |
| CC(=O)N[C@@H](CC(C)C)C(=O)N[C@H](C(=O)N[C@@H](Cc1ccccc1)C(=O)N[C@]1(C)CCCCCCC=CCCC[C@@](C)(C(=O)N[C@@H](CO)C(=O)N[C@H](C(=O)NCC(N)=O)C(C)C)NC(=O)[C@H](CC(C)C)NC(=O)[C@H](CCC(N)=O)NC(=O)[C@H](C)NC(=O)[C@H](Cc2c[nH]c3ccccc23)NC(=O)[C@H](Cc2ccc(O)cc2)NC(=O)[C@H](C)NC1=O)[C@@H](C)O [compound 123] (Ac-LTF[R8]AYWAQL[S5]SVG-NH2; staple 4-11) | 1 | 1 | 6 | 14 | < 0.01 | < 0.01 | 0.1 to 1 | 0.01 to 0.1 | −2 | 5 | 3 | – | – | – | – |
| CC(=O)N[C@@H](CCC(=O)O)C(=O)N[C@H](C(=O)N[C@@H](Cc1ccccc1)C(=O)N[C@]1(C)CCCCCCC=CCCC[C@@](C)(C(=O)N[C@@H](CO)C(=O)N[C@@H](C)C(=O)N[C@@H](C)C(N)=O)NC(=O)[C@H](CC(C)C)NC(=O)[C@H](CCC(N)=O)NC(=O)[C@H](C)NC(=O)[C@H](Cc2c[nH]c3ccccc23)NC(=O)[C@H](Cc2ccc(O)cc2)NC(=O)[C@H](C(C)C)NC1=O)[C@@H](C)O [compound 125] (Ac-ETF[R8]VYWAQL[S5]SAA-NH2; staple 4-11) | 1 | 3 | 9 | 29 | < 0.01 | < 0.01 | 0.1 to 1 | 0.01 to 0.1 | 0 | 0 | 2 | – | – | – | – |
| CC(=O)N[C@@H](CCC(=O)O)C(=O)N[C@H](C(=O)N[C@@H](Cc1ccccc1)C(=O)N[C@]1(C)CCCCCCC=CCCC[C@@](C)(C(=O)N[C@@H](CO)C(=O)N[C@H](C(=O)N[C@@H](C)C(N)=O)C(C)C)NC(=O)[C@H](CC(C)C)NC(=O)[C@H](CCC(N)=O)NC(=O)[C@H](C)NC(=O)[C@H](Cc2c[nH]c3ccccc23)NC(=O)[C@H](Cc2ccc(O)cc2)NC(=O)[C@H](C(C)C)NC1=O)[C@@H](C)O [compound 126] (Ac-ETF[R8]VYWAQL[S5]SVA-NH2; staple 4-11) | 1 | 1 | 6 | 30 | < 0.01 | < 0.01 | 0.1 to 1 | 0.01 to 0.1 | 1 | 1 | 1 | – | – | – | – |
| CC(=O)N[C@@H](CCC(=O)O)C(=O)N[C@H](C(=O)N[C@@H](Cc1ccccc1)C(=O)N[C@]1(C)CCCCCCC=CCCC[C@@](C)(C(=O)N[C@@H](CO)C(=O)N[C@H](C(=O)N[C@@H](CO)C(N)=O)C(C)C)NC(=O)[C@H](CC(C)C)NC(=O)[C@H](CCC(N)=O)NC(=O)[C@H](C)NC(=O)[C@H](Cc2c[nH]c3ccccc23)NC(=O)[C@H](Cc2ccc(O)cc2)NC(=O)[C@H](C(C)C)NC1=O)[C@@H](C)O [compound 130] (Ac-ETF[R8]VYWAQL[S5]SVS-NH2; staple 4-11) | 1 | 2 | 6 | 17 | < 0.01 | < 0.01 | 0.1 to 1 | 0.01 to 0.1 | 1 | 0 | −1 | – | – | – | – |
| CC(=O)N[C@@H](CCC(=O)O)C(=O)N[C@H](C(=O)N[C@@H](Cc1ccccc1)C(=O)N[C@]1(C)CCCCCCC=CCCC[C@@](C)(C(=O)N[C@@H](CO)C(=O)N[C@@H](C)C(=O)N[C@@H](C)C(N)=O)NC(=O)[C@H](CC(C)C)NC(=O)[C@H](CCC(N)=O)NC(=O)[C@H](C)NC(=O)[C@H](Cc2c[nH]c3ccccc23)NC(=O)[C@H](Cc2ccc(O)cc2)NC(=O)[C@H](CCC(=O)O)NC1=O)[C@@H](C)O [compound 161] (Ac-ETF[R8]EYWAQL[S5]SAA-NH2; staple 4-11) | 2 | 8 | 14 | 22 | < 0.01 | < 0.01 | 0.1 to 1 | 0.01 to 0.1 | 1 | −1 | 0 | – | – | – | – |
| CC[C@H](C)[C@H](NC(=O)[C@H](C)NC(=O)[C@H](C)NC(=O)[C@]1(C)CCCC=CCCCCCC[C@@](C)(NC(=O)[C@H](Cc2ccccc2)NC(=O)[C@@H](NC(=O)[C@H](CC(C)C)NC(C)=O)[C@@H](C)O)C(=O)N[C@@H](C)C(=O)N[C@@H](Cc2c[nH]cn2)C(=O)N[C@@H](Cc2c[nH]c3ccccc23)C(=O)N[C@@H](C)C(=O)N[C@@H](CCC(N)=O)C(=O)N[C@@H](CC(C)C)C(=O)N1)C(=O)N[C@H](C)C(N)=O [compound 170] (Ac-LTF[R8]AHWAQL[S5]AAI[dA]-NH2; staple 4-11) | 1 | 1 | 16 | 20 | < 0.01 | < 0.01 | 0.1 to 1 | 0.01 to 0.1 | 2 | 1 | −1 | – | – | – | – |
| CC[C@H](C)[C@H](NC(C)=O)C(=O)N[C@H](C(=O)N[C@@H](Cc1ccccc1)C(=O)N[C@]1(C)CCCCCCC=CCCC[C@@](C)(C(=O)N[C@@H](C)C(=O)N[C@@H](C)C(=O)N[C@H](C(=O)N[C@H](C)C(N)=O)[C@@H](C)CC)NC(=O)[C@H](CC(C)C)NC(=O)[C@H](CCC(N)=O)NC(=O)[C@H](C(C)C)NC(=O)[C@H](Cc2c[nH]c3ccccc23)NC(=O)[C@H](Cc2ccc(O)cc2)NC(=O)[C@H](Cc2ccccc2)NC1=O)[C@@H](C)O [compound 177] (Ac-ITF[R8]FYWVQL[S5]AAI[dA]-NH2; staple 4-11) | 1 | 1 | 8 | 20 | 0.01 to 0.1 | < 0.01 | 0.1 to 1 | 0.01 to 0.1 | −1 | 0 | 1 | – | – | – | – |
| CC(=O)N[C@@H](CC(C)C)C(=O)N[C@H](C(=O)N[C@@H](Cc1ccccc1)C(=O)N[C@]1(C)CCCCCCC=CCCC[C@@](C)(C(=O)N[C@@H](CO)C(=O)N[C@@H](C)C(=O)N[C@@H](C)C(N)=O)NC(=O)[C@H](CC(C)C)NC(=O)[C@H](C)NC(=O)[C@H](C(C)C)NC(=O)[C@H](Cc2c[nH]c3ccccc23)NC(=O)[C@H](Cc2ccc(O)cc2)NC(=O)[C@H](C)NC1=O)[C@@H](C)O [compound 196] (Ac-LTF[R8]AYWVAL[S5]SAA-NH2; staple 4-11) | 1 | 4 | 33 | 26 | 0.01 to 0.1 | < 0.01 | 0.1 to 1 | 0.01 to 0.1 | 0 | 0 | 3 | – | – | – | – |
| CC(=O)N[C@@H](CC(C)C)C(=O)N[C@H](C(=O)N[C@@H](Cc1ccccc1)C(=O)N[C@]1(C)CCCCCCC=CCCC[C@@](C)(C(=O)N[C@@H](CO)C(=O)N[C@@H](C)C(=O)N[C@@H](C)C(N)=O)NC(=O)[C@H](CC(C)C)NC(=O)[C@H](C)NC(=O)[C@H](C)NC(=O)[C@H](Cc2c[nH]c3ccccc23)NC(=O)[C@H](Cc2c[nH]cn2)NC(=O)[C@H](C)NC1=O)[C@@H](C)O [compound 197] (Ac-LTF[R8]AHWAAL[S5]SAA-NH2; staple 4-11) | 1 | 1 | 10 | 20 | – | – | – | – | 1 | −1 | −2 | < 0.01 | < 0.01 | 0.1 to 1 | 0.01 to 0.1 |
| CC(=O)N[C@@H](CC(C)C)C(=O)N[C@H](C(=O)N[C@@H](Cc1ccccc1)C(=O)N[C@]1(C)CCCCCCC=CCCC[C@@](C)(C(=O)N[C@@H](C)C(=O)N[C@@H](Cc2c[nH]cn2)C(=O)N[C@@H](Cc2ccccc2)C(=O)N[C@@H](C)C(N)=O)NC(=O)[C@H](CC(C)C)NC(=O)[C@H](C)NC(=O)[C@H](C)NC(=O)[C@H](Cc2c[nH]c3ccccc23)NC(=O)[C@H](Cc2ccc(O)cc2)NC(=O)[C@H](C)NC1=O)[C@@H](C)O [compound 204] (Ac-LTF[R8]AYWAAL[S5]AHFA-NH2; staple 4-11) | 1 | 4 | 10 | 10 | 0.01 to 0.1 | < 0.01 | 0.1 to 1 | 0.01 to 0.1 | 4 | 2 | 0 | – | – | – | – |
